# Tested on: 485368-065-R3-J5-PDC spheroids with HUVEC/MSC, viability
# Experiment: Anticancer human tumor 485368-065-R3-J5-PDC patient-derived pancreatic carcinoma cell line growth inhibition [RAS]
# Conditions: for IC50: curve of first compound; for viability, T/C: stronger effect = lower value
# In short: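 Tumour cells grown as complex spheroids with HUVEC endothelial cells and mesenchymal stem cells, treated with RAS pathway inhibitor combinations. Each agent spans half-log steps from near clinical Cmax, or 10 microM where Cmax is unknown.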
# [1] = second compound 0.00316 µM, first compound 0.0316 µM
# [2] = second compound 0.00316 µM, first compound 0.1 µM
# [3] = second compound 0.00316 µM, first compound 0.316 µM
# [4] = second compound 0.00316 µM, first compound 1 µM
# [5] = second compound 0.00316 µM, first compound 3.16 µM
# [6] = second compound 0.00316 µM, first compound 10 µM
# [7] = second compound 0.01 µM, first compound 0.0316 µM
# [8] = second compound 0.01 µM, first compound 0.1 µM
# [9] = second compound 0.01 µM, first compound 0.316 µM
# [10] = second compound 0.01 µM, first compound 1 µM
# [11] = second compound 0.01 µM, first compound 3.16 µM
# [12] = second compound 0.01 µM, first compound 10 µM
# [13] = second compound 0.0316 µM, first compound 0.0316 µM
# [14] = second compound 0.0316 µM, first compound 0.1 µM
# [15] = second compound 0.0316 µM, first compound 0.316 µM
# [16] = second compound 0.0316 µM, first compound 1 µM
# [17] = second compound 0.0316 µM, first compound 3.16 µM
# [18] = second compound 0.0316 µM, first compound 10 µM
# [19] = second compound 0.1 µM, first compound 0.0316 µM
# [20] = second compound 0.1 µM, first compound 0.1 µM
# [21] = second compound 0.1 µM, first compound 0.316 µM
# [22] = second compound 0.1 µM, first compound 1 µM
# [23] = second compound 0.1 µM, first compound 3.16 µM
# [24] = second compound 0.1 µM, first compound 10 µM
# [25] = second compound 0.316 µM, first compound 0.0316 µM
# [26] = second compound 0.316 µM, first compound 0.1 µM
# [27] = second compound 0.316 µM, first compound 0.316 µM
# [28] = second compound 0.316 µM, first compound 1 µM
# [29] = second compound 0.316 µM, first compound 3.16 µM
# [30] = second compound 0.316 µM, first compound 10 µM
# [31] = second compound 1 µM, first compound 0.0316 µM
# [32] = second compound 1 µM, first compound 0.1 µM
# [33] = second compound 1 µM, first compound 0.316 µM
# [34] = second compound 1 µM, first compound 1 µM
# [35] = second compound 1 µM, first compound 3.16 µM
# [36] = second compound 1 µM, first compound 10 µM
# 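Also: spheroids exposed to agents for seven days before readout.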
smiles,measurement,setting,value
CC(Nc1ccc2c(c1)OCCn1cc(N3C(=O)OCC3C(F)F)nc1-2)C(N)=O (stereo unspecified) + C=CC(=O)N1CCN(c2nc(OCC3CCCN3C)nc3c(F)c(-c4nc(N)cc(C)c4C(F)(F)F)c(Cl)cc23)C(C)C1,IC50,second compound 0.00316 µM,> 10 µM
same,IC50,second compound 0.01 µM,> 10 µM
same,IC50,second compound 0.0316 µM,> 10 µM
same,IC50,second compound 0.1 µM,9.8 µM
same,IC50,second compound 0.316 µM,> 10 µM
same,IC50,second compound 1 µM,4.99 µM
same,"viability, T/C",[1],103%
same,"viability, T/C",[2],79.8%
same,"viability, T/C",[3],88.5%
same,"viability, T/C",[4],75.4%
same,"viability, T/C",[5],75.6%
same,"viability, T/C",[6],51.3%
same,"viability, T/C",[7],92.4%
same,"viability, T/C",[8],86.9%
same,"viability, T/C",[9],91.8%
same,"viability, T/C",[10],72.8%
same,"viability, T/C",[11],76.5%
same,"viability, T/C",[12],49.5%
same,"viability, T/C",[13],87.1%
same,"viability, T/C",[14],72.3%
same,"viability, T/C",[15],88%
same,"viability, T/C",[16],85.7%
same,"viability, T/C",[17],76.4%
same,"viability, T/C",[18],52.1%
same,"viability, T/C",[19],100%
same,"viability, T/C",[20],97.6%
same,"viability, T/C",[21],102%
same,"viability, T/C",[22],82%
same,"viability, T/C",[23],73.8%
same,"viability, T/C",[24],49.3%
same,"viability, T/C",[25],98.5%
same,"viability, T/C",[26],87.1%
same,"viability, T/C",[27],78.4%
same,"viability, T/C",[28],70.5%
same,"viability, T/C",[29],82.8%
same,"viability, T/C",[30],57.1%
same,"viability, T/C",[31],101%
same,"viability, T/C",[32],90.5%
same,"viability, T/C",[33],87.5%
same,"viability, T/C",[34],84.7%
same,"viability, T/C",[35],55%
same,"viability, T/C",[36],41.3%
C[C@@H](NC(=O)c1ncnc(N)c1Cl)c1ncc(C(=O)Nc2cc(C(F)(F)F)c(Cl)cn2)s1 + C=CC(=O)N1CCN(c2nc(OCC3CCCN3C)nc3c(F)c(-c4nc(N)cc(C)c4C(F)(F)F)c(Cl)cc23)C(C)C1,IC50,second compound 0.00316 µM,> 10 µM
same,IC50,second compound 0.01 µM,> 10 µM
same,IC50,second compound 0.0316 µM,> 10 µM
same,IC50,second compound 0.1 µM,> 10 µM
same,IC50,second compound 0.316 µM,> 10 µM
same,IC50,second compound 1 µM,> 10 µM
same,"viability, T/C",[1],119%
same,"viability, T/C",[2],99.9%
same,"viability, T/C",[3],104%
same,"viability, T/C",[4],95%
same,"viability, T/C",[5],86.6%
same,"viability, T/C",[6],73.7%
same,"viability, T/C",[7],103%
same,"viability, T/C",[8],105%
same,"viability, T/C",[9],95.8%
same,"viability, T/C",[10],104%
same,"viability, T/C",[11],92.1%
same,"viability, T/C",[12],77%
same,"viability, T/C",[13],107%
same,"viability, T/C",[14],94.8%
same,"viability, T/C",[15],104%
same,"viability, T/C",[16],104%
same,"viability, T/C",[17],91.8%
same,"viability, T/C",[18],78.6%
same,"viability, T/C",[19],108%
same,"viability, T/C",[20],103%
same,"viability, T/C",[21],107%
same,"viability, T/C",[22],103%
same,"viability, T/C",[23],94.6%
same,"viability, T/C",[24],77%
same,"viability, T/C",[25],104%
same,"viability, T/C",[26],106%
same,"viability, T/C",[27],107%
same,"viability, T/C",[28],102%
same,"viability, T/C",[29],98.6%
same,"viability, T/C",[30],80.2%
same,"viability, T/C",[31],105%
same,"viability, T/C",[32],111%
same,"viability, T/C",[33],94.7%
same,"viability, T/C",[34],104%
same,"viability, T/C",[35],96.5%
same,"viability, T/C",[36],81.4%
O=C(c1ccc(F)c(F)c1Nc1ccc(I)cc1F)N1CC(O)([C@@H]2CCCCN2)C1 + C=CC(=O)N1CCN(c2nc(OCC3CCCN3C)nc3c(F)c(-c4nc(N)cc(C)c4C(F)(F)F)c(Cl)cc23)C(C)C1,IC50,second compound 0.00316 µM,0.0286 µM
same,IC50,second compound 0.01 µM,0.0278 µM
same,IC50,second compound 0.0316 µM,0.0311 µM
same,IC50,second compound 0.1 µM,0.0291 µM
same,IC50,second compound 0.316 µM,0.0344 µM
same,IC50,second compound 1 µM,0.0496 µM
same,"viability, T/C","second compound 0.00316 µM, first compound 0.00316 µM",106%
same,"viability, T/C","second compound 0.00316 µM, first compound 0.01 µM",60.2%
same,"viability, T/C",[1],56.9%
same,"viability, T/C",[2],30.1%
same,"viability, T/C",[3],24.3%
same,"viability, T/C",[4],8.78%
same,"viability, T/C","second compound 0.01 µM, first compound 0.00316 µM",99.8%
same,"viability, T/C","second compound 0.01 µM, first compound 0.01 µM",71.6%
same,"viability, T/C",[7],44.8%
same,"viability, T/C",[8],29.5%
same,"viability, T/C",[9],26.1%
same,"viability, T/C",[10],8.23%
same,"viability, T/C","second compound 0.0316 µM, first compound 0.00316 µM",90.9%
same,"viability, T/C","second compound 0.0316 µM, first compound 0.01 µM",73.1%
same,"viability, T/C",[13],47.8%
same,"viability, T/C",[14],29.8%
same,"viability, T/C",[15],23.1%
same,"viability, T/C",[16],7.64%
same,"viability, T/C","second compound 0.1 µM, first compound 0.00316 µM",86%
same,"viability, T/C","second compound 0.1 µM, first compound 0.01 µM",72.3%
same,"viability, T/C",[19],44.6%
same,"viability, T/C",[20],30.4%
same,"viability, T/C",[21],25.3%
same,"viability, T/C",[22],8.95%
same,"viability, T/C","second compound 0.316 µM, first compound 0.00316 µM",85.8%
same,"viability, T/C","second compound 0.316 µM, first compound 0.01 µM",68.6%
same,"viability, T/C",[25],50.5%
same,"viability, T/C",[26],33.1%
same,"viability, T/C",[27],26.8%
same,"viability, T/C",[28],8.9%
same,"viability, T/C","second compound 1 µM, first compound 0.00316 µM",91.6%
same,"viability, T/C","second compound 1 µM, first compound 0.01 µM",65.5%
same,"viability, T/C",[31],52.7%
same,"viability, T/C",[32],47.3%
same,"viability, T/C",[33],27.6%
same,"viability, T/C",[34],11.4%

# — PubChem BioAssay AID2060902 (Molecular Pharmacology Branch, DTP, NCI, 2025)
